Laboratory results reported in patent US20230364243A1, “CANCER-SELECTIVE TARGET DEGRADATION BY TARGETING GROUP CAGED PROTACS” (Beth Israel Deaconess Medical Center, Inc., priority 2021, published 2023).

Tests used:
[1] = tested on: MEK1 and MEK2; assay: Western blot analysis of MEK1 and MEK2 levels in HT29 and SK-MEL-28 cells; assay type: cell-based; conditions: HT29 and SK-MEL-28 cells, dose- and time-dependent
Procedure: (§1) For folic acid competitive degradation assay, cells were pretreated with folic acid (F8758, Sigma-Aldrich, 2.5 mM) for 2 hours, followed by the treatment of indicated PROTACs for indicated time. For endocytosis inhibition, cells were pretreated with Pitostop 2 (SML1169, Sigma-Aldrich, 1-30 μM) or MCD (21633, Cayman, 0.03-1 mM) for 12 hours, followed by co-treatment with indicated PROTACs for another 12 hours. For proteasome or E3 ligase inhibition assay, cells were treated with MG132 (BML-P11020, ENZO Life Sciences, 10 μM) or MLN4924 (S7109, SelleckChem, 1 μM) another 12 hours. For GSH-stimulating assay, cells were treated with S-Acetyl-GSH (29624, Cayman, 1 mM) with indicated PROTACs for 12 or 72 hours.
(§2) Cells were lysed in EBC buffer (50 mM Tris pH 7.5, 120 mM NaCl, 0.5% NP-40) supplemented with protease inhibitors (Pierce) and phosphatase inhibitors (phosphatase inhibitor cocktail set I and II, Calbiochem). The protein concentrations of the lysates were measured using the Bio-Rad protein assay reagent on a Beckman Coulter DU-800 spectrophotometer. The lysates were then resolved by SDS-PAGE and immunoblotted with indicated antibodies.
(§3) Cells were lysed in EBC buffer (50 mM Tris-HCl pH 7.5, 120 mM NaCl and 0.5% NP-40) supplemented with protease inhibitors (Pierce) and phosphatase inhibitors (phosphatase inhibitor cocktailset I and II, Calbiochem). The protein concentrations of the lysates were measured using the Bio-Rad protein assay reagent on a Beckman Coulter DU-800 spectrophotometer. The lysates (40 μg protein) werethen resolved by 10% SDS-olyacrylamide gel electrophoresis (PAGE) at 130 V for 80 min and immunoblotted with indicated antibodies at 4° C. overnight, washed four times with Tris-buffered saline with 0.1% Tween-20 (TBST) buffer, incubated with secondary antibody for 1 hour at room temperature, and then washed 4 times with TBST.

[2] = target: T1, NPM-ALK fusion protein (Homo sapiens, UniProt Q9UM73); assay: Western blot analysis of NPM-ALK fusion protein in SU-DHL-1 cells; assay type: cell-based; conditions: for DC50: read-out: DC50 of NPM-ALK fusion protein degradation; for effect in degrading NPM-ALK fusion protein after pretreatment with folic acid: free folic acid pretreatment
T1 construct: endogenous in cells; host or cells: SU-DHL-1; the other entry of the earlier key: NPM1 (P06748, Nucleophosmin)
T1 sequence (Q9UM73 with tags, fused parts or gaps): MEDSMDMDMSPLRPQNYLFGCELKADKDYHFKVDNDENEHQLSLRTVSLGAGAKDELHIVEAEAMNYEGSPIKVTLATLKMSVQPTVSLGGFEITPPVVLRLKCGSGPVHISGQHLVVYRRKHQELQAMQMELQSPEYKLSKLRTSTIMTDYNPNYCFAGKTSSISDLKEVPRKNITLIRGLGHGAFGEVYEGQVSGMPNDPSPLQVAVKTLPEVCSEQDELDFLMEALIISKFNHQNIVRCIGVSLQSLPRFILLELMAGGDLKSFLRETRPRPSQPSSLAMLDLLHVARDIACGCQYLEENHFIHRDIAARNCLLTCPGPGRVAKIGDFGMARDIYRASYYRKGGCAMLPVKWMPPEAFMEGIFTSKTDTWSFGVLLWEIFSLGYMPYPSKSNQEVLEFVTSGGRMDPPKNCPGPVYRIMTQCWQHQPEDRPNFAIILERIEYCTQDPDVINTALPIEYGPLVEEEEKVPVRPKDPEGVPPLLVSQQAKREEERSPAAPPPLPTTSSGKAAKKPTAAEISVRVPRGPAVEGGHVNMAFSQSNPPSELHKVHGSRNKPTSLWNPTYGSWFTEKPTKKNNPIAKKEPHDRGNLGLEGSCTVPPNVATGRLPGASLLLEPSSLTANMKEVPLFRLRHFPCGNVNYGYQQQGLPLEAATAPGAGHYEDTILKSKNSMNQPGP
Procedure: as §1, §2, §3

[3] = tested on: SU-DHL-1 cells; assay: Cell viability of SU-DHL-1 cells (CCK-8); assay type: cell-based; conditions: 72 hours; for IC50: Homo sapiens, read-out: IC50 cell viability / proliferation
Procedure: as §1
Cell in 96-well plates were treated with drugs as indicated, and then incubated with 10 μl/well of CCK-8 (cell counting Kit-8) solution at for 1-2 hours, followed by the measurement of optical density at 450 nm.

[4] = target: T2, EML4-ALK fusion protein (Homo sapiens, UniProt Q9UM73); assay: Western blot analysis of EML4-ALK fusion protein in NCI-H2228 and NCI-H3122 NSCLC cells; assay type: cell-based
T2 construct: endogenous in cells; host or cells: NCI-H2228, NCI-H3122; the other entry of the earlier key: EML4 (Q9HC35, Echinoderm microtubule-associated protein-like 4)
T2 sequence (Q9UM73 1058-1620 limits assumed): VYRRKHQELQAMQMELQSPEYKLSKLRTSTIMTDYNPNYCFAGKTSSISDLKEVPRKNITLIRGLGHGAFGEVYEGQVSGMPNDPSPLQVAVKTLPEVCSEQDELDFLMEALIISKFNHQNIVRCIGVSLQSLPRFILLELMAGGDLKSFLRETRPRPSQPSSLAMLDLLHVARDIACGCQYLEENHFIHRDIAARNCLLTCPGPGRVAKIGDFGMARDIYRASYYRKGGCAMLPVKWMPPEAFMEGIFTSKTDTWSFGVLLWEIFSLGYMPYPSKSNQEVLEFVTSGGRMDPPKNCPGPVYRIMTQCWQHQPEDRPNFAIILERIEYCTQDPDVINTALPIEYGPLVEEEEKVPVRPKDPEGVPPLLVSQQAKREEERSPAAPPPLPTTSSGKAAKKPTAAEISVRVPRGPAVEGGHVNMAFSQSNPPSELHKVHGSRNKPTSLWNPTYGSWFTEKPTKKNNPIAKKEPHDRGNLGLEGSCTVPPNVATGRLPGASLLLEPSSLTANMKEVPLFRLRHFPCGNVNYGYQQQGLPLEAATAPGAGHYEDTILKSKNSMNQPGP
Procedure: as §1, §2, §3

[5] = Release of active compound after incubation with DTT in PBS at 37° C., HPLC analysis; assay type: physicochemical; conditions: 37° C. in PBS; for release of MS4048 after DTT treatment: DTT (10 equiv), HPLC
Procedure: FA-S2-POMA and the negative control FA-C2-POMA were incubated with dithiothreitol (DTT) under physiological conditions (37° C. in phosphate buffered saline (PBS)) and then subjected to HPLC analysis.
The effects of these folate caged PROTACS on ALK fusion protein degradation was assessed in cancer cells. FA-S2-MS4048 and FA-C2-MS4048 were incubated with DTT at 37° C. in PBS. […] Furthermore, compared to FA-S2-POMA (FIG. 11B), the release rate of FA-S2-MS4048 is slower.

Row | IC50 [3] | effect in degrading NPM-ALK fusion protein after pretreatment with folic acid ([2]; SU-DHL-1 cells) | release of MS4048 after DTT treatment [5] | Structure (SMILES) | degradation of NPM-ALK fusion protein ([2]; SU-DHL-1 cells) | DC50 ([2]; SU-DHL-1 cells, 12 hours) | degradation of EML4-ALK fusion proteins [4] | other results
1 | – | – | – | Cc1ncsc1-c1ccc([C@H](C)NC(=O)[C@@H]2C[C@@H](NC(=O)CCCCn3cc(CNC(=O)CC[C@H](NC(=O)c4ccc(NCc5cnc6nc(N)[nH]c(=O)c6n5)cc4)C(=O)O)nn3)CN2C(=O)[C@@H](NC(=O)CCCCCCCCCCNCCCONC(=O)c2ccc(F)c(F)c2Nc2ccc(I)cc2F)C(C)(C)C)cc1 [Folate-MS432N, N^2-(4-(((2-amino-4-oxo-3,4-dihydropteridin-6-yl)methyl)amino)benzoyl)-N^5-((1-(5-(((3R,5S)-1-((S)-2-(11-((3-((3,4-difluoro-2-((2-fluoro-4-iodophenyl)amino)benzamido)oxy)propyl)amino)undecanamido)-3,3-dimethylbutanoyl)-5-(((S)-1-(4-(4-methylthiazol-5-yl)phenyl)ethyl)carbamoyl)pyrrolidin-3-yl)amino)-5-oxopentyl)-1H-1,2,3-triazol-4-yl)methyl)-L-glutamine] | – | – | – | degradation of MEK1 and MEK2 [1]: could not do so
2 | 200 nM | antagonized the effect | – | Cc1cc(Nc2ncc(Cl)c(Nc3ccccc3S(=O)(=O)C(C)C)n2)c(OC(C)C)cc1C1CCN(C(=O)CCCC(=O)N[C@H](C(=O)N2C[C@H](OC(=O)CCCCn3cc(CNC(=O)CC[C@H](NC(=O)c4ccc(NCc5cnc6nc(N)[nH]c(=O)c6n5)cc4)C(=O)O)nn3)C[C@H]2C(=O)N[C@@H](C)c2ccc(-c3scnc3C)cc2)C(C)(C)C)CC1 [Folate-MS99, N^2-(4-(((2-amino-4-oxo-3,4-dihydropteridin-6-yl)methyl)amino)benzoyl)-N^5-((1-(5-(((3R,5S)-1-((S)-2-(5-(4-(4-((5-chloro-4-((2-(isopropylsulfonyl)phenyl)amino)pyrimidin-2-yl)amino)-5-isopropoxy-2-methylphenyl)piperidin-1-yl)-5-oxopentanamido)-3,3-dimethylbutanoyl)-5-(((S)-1-(4-(4-methylthiazol-5-yl)phenyl)ethyl)carbamoyl)pyrrolidin-3-yl)oxy)-5-oxopentyl)-1H-1,2,3-triazol-4-yl)methyl)-L-glutamine] | degraded NPM-ALK fusion protein efficiently | 100 nM | efficiently degraded the EML4-ALK fusion proteins | effect in degrading EML4-ALK fusion protein after pretreatment with free folic acid ([4]; free folic acid pretreatment): antagonized the effect
3 | 9500 nM | – | no release of MS4048 | Cc1cc(Nc2ncc(Cl)c(Nc3ccccc3S(=O)(=O)C(C)C)n2)c(OC(C)C)cc1C1CCN(CC(=O)NCCNc2cccc3c2C(=O)N(C2CCC(=O)N(C(=O)OCCCCCCn4cc(CNC(=O)CC[C@H](NC(=O)c5ccc(NCc6cnc7nc(N)[nH]c(=O)c7n6)cc5)C(=O)O)nn4)C2=O)C3=O)CC1 (stereo partly drawn) [FA-C2-MS4048, N^2-(4-(((2-amino-4-oxo-3,4-dihydropteridin-6-yl)methyl)amino)benzoyl)-N^5-((1-(6-((3-(4-((2-(2-(4-(4-((5-chloro-4-((2-(isopropylsulfonyl)phenyl)amino)pyrimidin-2-yl)amino)-5-isopropoxy-2-methylphenyl)piperidin-1-yl)acetamido)ethyl)amino)-1,3-dioxoisoindolin-2-yl)-2,6-dioxopiperidine-1-carbonyl)oxy)hexyl)-1H-1,2,3-triazol-4-yl)methyl)-L-glutamine] | had some degradation effect | – | – | –
4 | 465 nM | blocked the effect | efficient release of MS4048 | Cc1cc(Nc2ncc(Cl)c(Nc3ccccc3S(=O)(=O)C(C)C)n2)c(OC(C)C)cc1C1CCN(CC(=O)NCCNc2cccc3c2C(=O)N(C2CCC(=O)N(C(=O)OCCSSCCn4cc(CNC(=O)CC[C@H](NC(=O)c5ccc(NCc6cnc7nc(N)[nH]c(=O)c7n6)cc5)C(=O)O)nn4)C2=O)C3=O)CC1 (stereo partly drawn) [FA-S2-MS4048, N^2-(4-(((2-amino-4-oxo-3,4-dihydropteridin-6-yl)methyl)amino)benzoyl)-N^5-((1-(2-((2-((3-(4-((2-(2-(4-(4-((5-chloro-4-((2-(isopropylsulfonyl)phenyl)amino)pyrimidin-2-yl)amino)-5-isopropoxy-2-methylphenyl)piperidin-1-yl)acetamido)ethyl)amino)-1,3-dioxoisoindolin-2-yl)-2,6-dioxopiperidine-1-carbonyl)oxy)ethyl)disulfanyl)ethyl)-1H-1,2,3-triazol-4-yl)methyl)-L-glutamine] | effectively degraded | – | effectively degraded | release rate compared to FA-S2-POMA ([5]; DTT): slower; degradation of EML4-ALK with MG132 or MLN4924 ([4]; MG132 or MLN4924): blocked the degradation; potency in degrading the ALK proteins compared with FA-C2-MS4048 ([2]; ALK fusion proteins): more potent than FA-C2-MS4048; potency in degrading the proteins of interest compared with MS4048 ([2]; ALK fusion proteins): less potent than its uncaged analog, MS4048; time at which significant degradation was observed ([2]; SU-DHL-1 cells, 3 μM): ≤ 1 h; effect on degrading NPM-ALK after depletion of endogenous CRBN E3 ligase ([2]; SU-DHL-1 cells, 3 μM, 12 hours): significantly reduced the effect; effect on degrading NPM-ALK after knockdown of FOLR1 via shRNAs ([2]; SU-DHL-1 cells, 3 μM, 12 hours): completely abolished the effect; degradation of NPM-ALK with MG132 or MLN4924 ([2]; SU-DHL-1 cells, 10 μM MG132 or 1 μM MLN4924): blocked the degradation of NPM-ALK; potency in degrading NPM-ALK after pretreatment with S-Ac-GSH ([2]; SU-DHL-1 cells, S-Ac-GSH 1 mM): significant increase in potency; potency in inhibiting proliferation after pretreatment with folic acid ([3]; 2.5 mM folic acid): significantly reduced potency; potency in inhibiting proliferation after pretreatment with S-Ac-GSH ([3]; S-Ac-GSH 1 mM): significantly increased potency
5 | – | – | – | Cc1cc(Nc2ncc(Cl)c(Nc3ccccc3S(=O)(=O)C(C)C)n2)c(OC(C)C)cc1C1CCN(C(=O)CCCC(=O)N[C@H](C(=O)N2C[C@H](NC(=O)CCCCn3cc(CNC(=O)CC[C@H](NC(=O)c4ccc(NCc5cnc6nc(N)[nH]c(=O)c6n5)cc4)C(=O)O)nn3)C[C@H]2C(=O)N[C@@H](C)c2ccc(-c3scnc3C)cc2)C(C)(C)C)CC1 [Folate-MS99N, N^2-(4-(((2-amino-4-oxo-3,4-dihydropteridin-6-yl)methyl)amino)benzoyl)-N^5-((1-(5-(((3R,5S)-1-((S)-2-(5-(4-(4-((5-chloro-4-((2-(isopropylsulfonyl)phenyl)amino)pyrimidin-2-yl)amino)-5-isopropoxy-2-methylphenyl)piperidin-1-yl)-5-oxopentanamido)-3,3-dimethylbutanoyl)-5-(((S)-1-(4-(4-methylthiazol-5-yl)phenyl)ethyl)carbamoyl)pyrrolidin-3-yl)amino)-5-oxopentyl)-1H-1,2,3-triazol-4-yl)methyl)-L-glutamine] | – | – | – | degrading NPM-ALK ([2]; SU-DHL-1 cells, even at 3 μM): incapable of degrading NPM-ALK

Row | Structure (SMILES) | IC50 [3] | effect in degrading NPM-ALK fusion protein after pretreatment with folic acid ([2]; SU-DHL-1 cells) | release of MS4048 after DTT treatment [5] | degradation of NPM-ALK fusion protein ([2]; SU-DHL-1 cells) | DC50 ([2]; SU-DHL-1 cells, 12 hours) | degradation of EML4-ALK fusion proteins [4] | other results
6 | Cc1cc(Nc2ncc(Cl)c(Nc3ccccc3S(=O)(=O)C(C)C)n2)c(OC(C)C)cc1C1CCN(C(=O)CCCC(=O)N[C@H](C(=O)N2C[C@H](O)C[C@H]2C(=O)N[C@@H](C)c2ccc(-c3scnc3C)cc2)C(C)(C)C)CC1 [MS99, (2S,4R)-1-((S)-2-(5-(4-(4-((5-chloro-4-((2-(isopropylsulfonyl)phenyl)amino)pyrimidin-2-yl)amino)-5-isopropoxy-2-methylphenyl)piperidin-1-yl)-5-oxopentanamido)-3,3-dimethylbutanoyl)-4-hydroxy-N-((S)-1-(4-(4-methylthiazol-5-yl)phenyl)ethyl)pyrrolidine-2-carboxamide] | 91.4 nM | – | – | degraded NPM-ALK fusion protein efficiently | 30 nM | – | –
